Measurements reported in patent US12097241B2, “Methods of treating kidney failure, and/or improving or stablizing renal function using modified relaxin polypeptides” (BRISTOL-MYERS SQUIBB COMPANY, priority 2017, dated 2024).
Entries after “also recorded” stand apart in the source; their conditions may differ. Read-outs that look alike come from different tables or passages of the source. Marks after values point to notes of the source that are not given here.

How the values were obtained:
[1] = Rat renal blood flow studies; assay type: in vivo, Sprague Dawley rats; settings: 1 mg/kg intravenously; for % change in RBF over baseline: anesthetized male Sprague Dawley rats, renal blood flow recorded for 45 min
Experimental: Male Sprague Dawley rats (˜250-300 g) were anesthetized with sodium pentobarbital (50 mg/kg), the trachea was cannulated with PE-205 tubing to maintain airway patency, and temperature was maintained at 37° C. with a heated surgical plate. A 1.4 F pressure catheter (Millar Inc., Houston, TX) was advanced into the right carotid artery to measure aortic blood pressure. The right jugular vein was cannulated with PE-50 tubing for administration of test articles. The left kidney was exposed by a retroperitoneal incision, and a Doppler flow probe (Model 0.5 VB, Transonic System Inc., Ithaca, NY) was attached to the left renal artery to monitor blood flow. Sodium pentobarbital (15 mg/kg, intraperitoneal) was supplemented after completion of these surgical procedures. Following a 10-15 min equilibration, the relaxin was administered at 1 mg/kg intravenously in a dosing volume of 0.15 to 1.82 mL/kg over 30 seconds via an infusion pump (Harvard Apparatus, Holliston, MA). Blood pressure, heart rate and renal blood flow were continuously recorded for 45 min after relaxin administration using a Millar MPVS Ultra Signal Conditioning unit connected to a desktop computer running LabChart 7-Pro data acquisition software (ADInstruments, Dunedin, New Zealand) (Table 5). Table 5. Rat renal blood flow changes (abbreviations as in Table 3).

human RXFP1 receptor = target: T1, human RXFP1 receptor (Homo sapiens, UniProt Q9HBX9); assay: Intracellular cAMP accumulation assay; assay type: cell-based
T1 construct: expressed in transfected cells
T1 sequence (Q9HBX9 1-757): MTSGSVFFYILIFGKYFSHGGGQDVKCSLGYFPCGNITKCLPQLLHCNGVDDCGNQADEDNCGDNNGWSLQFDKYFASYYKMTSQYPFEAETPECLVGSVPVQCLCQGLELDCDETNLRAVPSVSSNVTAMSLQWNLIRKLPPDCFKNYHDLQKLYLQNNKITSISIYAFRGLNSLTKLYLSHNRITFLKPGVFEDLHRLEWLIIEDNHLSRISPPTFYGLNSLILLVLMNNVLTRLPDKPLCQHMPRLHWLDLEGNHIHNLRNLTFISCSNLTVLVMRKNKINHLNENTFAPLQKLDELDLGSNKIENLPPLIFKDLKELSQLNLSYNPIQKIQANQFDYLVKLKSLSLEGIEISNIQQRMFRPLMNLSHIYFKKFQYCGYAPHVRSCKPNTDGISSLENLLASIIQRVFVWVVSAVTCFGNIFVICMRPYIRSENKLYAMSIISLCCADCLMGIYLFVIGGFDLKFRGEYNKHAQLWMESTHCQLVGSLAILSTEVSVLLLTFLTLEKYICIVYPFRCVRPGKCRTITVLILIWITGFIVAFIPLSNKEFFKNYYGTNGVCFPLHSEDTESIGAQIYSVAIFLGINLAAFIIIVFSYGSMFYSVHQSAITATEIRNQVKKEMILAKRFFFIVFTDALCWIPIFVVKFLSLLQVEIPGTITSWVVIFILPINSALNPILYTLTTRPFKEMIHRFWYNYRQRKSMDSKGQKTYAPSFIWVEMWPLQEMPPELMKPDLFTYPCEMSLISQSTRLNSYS
Experimental: The intracellular cAMP accumulation assay described herein was used to assess relaxin bioactivity and potency.
CHO-K1 cells (ATCC; Cat. #CRL-9618) stably expressing the human RXFP1 receptor (locus number LOC59350) (10,000/well) were plated into 96-well plates and cultured overnight at 37° C. and 5% CO2. On the following day, the medium was removed from the wells and the cells were stimulated with the addition of ligand (relaxin polypeptide) in 50 uL buffer (1×HBSS, 5 mM HEPES (7.2), 0.5 mM IBMX, 0.1% BSA); incubation was for 10 min at 37° C. Unstimulated cells were utilized as reference controls. Reactions were terminated and cellular cAMP levels were measured using the Homogeneous Time Resolved Fluorescence (HTRF) Dynamic 2 cAMP kit (CisBio, #62AM4PEC) according to the manufacturer's protocol. Plates were analyzed using an EnVision 2104 Multilablel Reader (PerkinElmer). Signal was expressed in terms of the ratio of fluorescence intensity @ 665 nm/fluorescence intensity @620 nm×10,000. The concentration of cAMP in the sample was determined by comparison with standard curves generated from known concentrations of cAMP. The potency of each relaxin was determined using a ten-point concentration response curves which was performed in duplicate. The data were analyzed using Microsoft Excel, Version 2013 Xlfit software. Effective concentration 50 (EC50) values, the point at which the response was one-half maximal, were calculated using a four-parameter logistic equation that allowed for a variable-slope (Table 3).

[2] = In vivo pharmacokinetic (PK) studies in rats; design: species or system Sprague-Dawley rats; settings: rat, male Sprague-Dawley rats, single SC dose 1.0 mg/kg, serum ELISA; for AUC(0-inf): read-out: Rat PK AUC Total; for level at time molar at 24 h: read-out: Rat PK C24
Method in brief: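 Male Sprague-Dawley rats (n=3) given a single 1 mg/kg IV or SC dose of relaxin constructs in 20 mM histidine, 750 mM NaCl, pH 6.0; jugular serum sampled to 72 h. Serum relaxin by ELISA; Cmax, AUCinf, C24 and half-life from non-compartmental analysis of individual profiles.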

SMILES | % change in RBF over baseline [1] | effect on renal blood flow (in words) ([1]; rats, 1 mg/kg) | EC50 (human RXFP1 receptor; CHO-K1 cells stably expressing human RXFP1, 10 min at 37° C., HTRF cAMP, average, read-out: hRXFP1/CHO-K1 cAMP EC50 (nM, avg)) | AUC(0-inf) [2] | level at time molar at 24 h [2] | EC50 (human RXFP1 receptor)
CCCCCCCCCCCCCC(=O)N[C@@H](CCC(=O)NCCO/N=C(\C)c1ccc(C[C@H](N)C(=O)N[C@@H](CC(C)C)C(=O)N[C@@H](Cc2ccc(O)cc2)C(=O)N[C@@H](CO)C(=O)N[C@@H](C)C(=O)N[C@@H](CC(C)C)C(=O)N[C@@H](C)C(=O)N[C@@H](CC(N)=O)C(=O)N[C@@H](CCCCN)C(=O)N[C@H]2CSSC[C@@H]3NC(=O)CNC(=O)[C@H](C(C)C)NC(=O)[C@H](Cc4c[nH]cn4)NC(=O)[C@H](CSSC[C@H](NC(=O)[C@H](CC(C)C)NC(=O)[C@H](CCCCN)NC(=O)[C@@H](NC(=O)[C@@H](NC(=O)[C@H](CCC(=O)O)NC(=O)[C@H](CCC(=O)O)NC(=O)[C@H](CCSC)NC(=O)[C@H](Cc4c[nH]c5ccccc45)NC(=O)[C@H](CO)NC(=O)[C@H](C)N)C(C)C)[C@@H](C)CC)C(=O)NCC(=O)N[C@@H](CCCNC(=N)N)C(=O)N[C@@H](CCC(=O)O)C(=O)N[C@@H](CC(C)C)C(=O)N[C@@H](C(C)C)C(=O)N[C@@H](CCCNC(=N)N)C(=O)N[C@@H](C)C(=O)N[C@@H](CCC(N)=O)C(=O)N[C@@H]([C@@H](C)CC)C(=O)N[C@@H](C)C(=O)N[C@@H]([C@@H](C)CC)C(=O)N[C@H](C(=O)NCC(=O)N[C@@H](CCSC)C(=O)N[C@@H](CO)C(=O)N[C@H](C(=O)N[C@@H](Cc4c[nH]c5ccccc45)C(=O)N[C@@H](CO)C(=O)O)[C@@H](C)O)CSSC[C@@H](C(=O)O)NC(=O)[C@H](Cc4ccccc4)NC(=O)[C@H](CCCNC(=N)N)NC(=O)[C@H](C)NC(=O)[C@H](CC(C)C)NC(=O)[C@H](CO)NC(=O)[C@H](CCCNC(=N)N)NC(=O)[C@H](CCCCN)NC(=O)[C@H]([C@@H](C)O)NC3=O)NC2=O)cc1)C(=O)O [AQ1-Glu-C13-CH3] | −27^b % | impaired renal blood flow; also recorded: decreased renal blood flow | – | – | – | –
CC[C@H](C)[C@@H]1NC(=O)[C@H](C)NC(=O)[C@H]([C@@H](C)CC)NC(=O)[C@H](CCC(N)=O)NC(=O)[C@H](C)NC(=O)[C@H](CCCNC(=N)N)NC(=O)[C@H](C(C)C)NC(=O)[C@H](CC(C)C)NC(=O)[C@H](CCC(=O)O)NC(=O)[C@H](CCCNC(=N)N)NC(=O)CNC(=O)[C@@H](NC(=O)[C@H](CC(C)C)NC(=O)[C@H](CCCCN)NC(=O)[C@@H](NC(=O)[C@@H](NC(=O)[C@H](CCC(=O)O)NC(=O)[C@H](CCC(=O)O)NC(=O)[C@H](CCSC)NC(=O)[C@H](Cc2c[nH]c3ccccc23)NC(=O)[C@H](CO)NC(=O)[C@H](C)N)C(C)C)[C@@H](C)CC)CSSC[C@@H]2NC(=O)[C@@H](NC(=O)[C@H](CCCCN)NC(=O)[C@H](CC(N)=O)NC(=O)[C@H](C)NC(=O)[C@H](CC(C)C)NC(=O)[C@H](C)NC(=O)[C@H](CO)NC(=O)[C@H](Cc3ccc(O)cc3)NC(=O)[C@H](CC(C)C)NC(=O)[C@@H](N)Cc3ccc(/C(C)=N/OCCNC(=O)CC[C@H](NC(=O)CCCCCCCCCCCCC(=O)O)C(=O)O)cc3)CSSC[C@H](NC(=O)CNC(=O)[C@H](C(C)C)NC(=O)[C@H](Cc3c[nH]cn3)NC2=O)C(=O)N[C@@H]([C@@H](C)O)C(=O)N[C@@H](CCCCN)C(=O)N[C@@H](CCCNC(=N)N)C(=O)N[C@@H](CO)C(=O)N[C@@H](CC(C)C)C(=O)N[C@@H](C)C(=O)N[C@@H](CCCNC(=N)N)C(=O)N[C@@H](Cc2ccccc2)C(=O)N[C@H](C(=O)O)CSSC[C@@H](C(=O)NCC(=O)N[C@@H](CCSC)C(=O)N[C@@H](CO)C(=O)N[C@H](C(=O)N[C@@H](Cc2c[nH]c3ccccc23)C(=O)N[C@@H](CO)C(=O)O)[C@@H](C)O)NC1=O [AQ1-Glu-C13-COOH] | +14^b % | – | – | – | – | –
CC[C@H](C)[C@@H]1NC(=O)[C@H](C)NC(=O)[C@H]([C@@H](C)CC)NC(=O)[C@H](CCC(N)=O)NC(=O)[C@H](C)NC(=O)[C@H](CCCNC(=N)N)NC(=O)[C@H](C(C)C)NC(=O)[C@H](CC(C)C)NC(=O)[C@H](CCC(=O)O)NC(=O)[C@H](CCCNC(=N)N)NC(=O)CNC(=O)[C@@H](NC(=O)[C@H](CC(C)C)NC(=O)[C@H](CCCCN)NC(=O)[C@@H](NC(=O)[C@@H](NC(=O)[C@H](CCC(=O)O)NC(=O)[C@H](CCC(=O)O)NC(=O)[C@H](CCSC)NC(=O)[C@H](Cc2c[nH]c3ccccc23)NC(=O)[C@H](CO)NC(=O)[C@H](C)N)C(C)C)[C@@H](C)CC)CSSC[C@@H]2NC(=O)[C@@H](NC(=O)[C@H](CCCCN)NC(=O)[C@H](CC(N)=O)NC(=O)[C@H](C)NC(=O)[C@H](CC(C)C)NC(=O)[C@H](C)NC(=O)[C@H](CO)NC(=O)[C@H](Cc3ccc(O)cc3)NC(=O)[C@H](CC(C)C)NC(=O)[C@@H](N)Cc3ccc(C(C)=NOCCNC(=O)[C@H](CCCNC(=N)N)NC(=O)CNC(=O)CNC(=O)[C@H](CCC(=O)O)NC(=O)[C@H](CCC(=O)O)NC(=O)[C@H](CCCCN)NC(=O)[C@H](CCCCN)NC(=O)[C@H](CCCCN)NC(=O)[C@H](CCC(=O)O)NC(=O)[C@H](CCCCN)NC(=O)[C@H](CCC(=O)O)NC(=O)[C@H](CCCCN)NC(=O)CC[C@H](NC(=O)CCCCCCCCCCCCC(=O)O)C(=O)O)cc3)CSSC[C@H](NC(=O)CNC(=O)[C@H](C(C)C)NC(=O)[C@H](Cc3c[nH]cn3)NC2=O)C(=O)N[C@@H]([C@@H](C)O)C(=O)N[C@@H](CCCCN)C(=O)N[C@@H](CCCNC(=N)N)C(=O)N[C@@H](CO)C(=O)N[C@@H](CC(C)C)C(=O)N[C@@H](C)C(=O)N[C@@H](CCCNC(=N)N)C(=O)N[C@@H](Cc2ccccc2)C(=O)N[C@H](C(=O)O)CSSC[C@@H](C(=O)NCC(=O)N[C@@H](CCSC)C(=O)N[C@@H](CO)C(=O)N[C@H](C(=O)N[C@@H](Cc2c[nH]c3ccccc23)C(=O)N[C@@H](CO)C(=O)O)[C@@H](C)O)NC1=O [AQ1-RGGEEKKKEKEK-Glu^γ-C13-COOH] | – | – | 0.29 nM | 0.987 µM·h | 0.1 nM | –
CC[C@H](C)[C@@H]1NC(=O)[C@H](C)NC(=O)[C@H]([C@@H](C)CC)NC(=O)[C@H](CCC(N)=O)NC(=O)[C@H](C)NC(=O)[C@H](CCCNC(=N)N)NC(=O)[C@H](C(C)C)NC(=O)[C@H](CC(C)C)NC(=O)[C@H](CCC(=O)O)NC(=O)[C@H](CCCNC(=N)N)NC(=O)CNC(=O)[C@@H](NC(=O)[C@H](CC(C)C)NC(=O)[C@H](CCCCN)NC(=O)[C@@H](NC(=O)[C@@H](NC(=O)[C@H](CCC(=O)O)NC(=O)[C@H](CCC(=O)O)NC(=O)[C@H](CCSC)NC(=O)[C@H](Cc2c[nH]c3ccccc23)NC(=O)[C@H](CO)NC(=O)[C@H](C)N)C(C)C)[C@@H](C)CC)CSSC[C@@H]2NC(=O)[C@@H](NC(=O)[C@H](CCCCN)NC(=O)[C@H](CC(N)=O)NC(=O)[C@H](C)NC(=O)[C@H](CC(C)C)NC(=O)[C@H](C)NC(=O)[C@H](CO)NC(=O)[C@H](Cc3ccc(O)cc3)NC(=O)[C@H](CC(C)C)NC(=O)[C@@H](N)Cc3ccc(C(C)=NOCCNC(=O)[C@@H](CCCCN)NC(=O)[C@@H](CCCCN)NC(=O)[C@@H](CCCCN)NC(=O)[C@@H](CCCCN)NC(=O)[C@@H](CCCCN)NC(=O)[C@@H](CCCCN)NC(=O)CC[C@H](NC(=O)CCCCCCCCCCCCC(=O)O)C(=O)O)cc3)CSSC[C@H](NC(=O)CNC(=O)[C@H](C(C)C)NC(=O)[C@H](Cc3c[nH]cn3)NC2=O)C(=O)N[C@@H]([C@@H](C)O)C(=O)N[C@@H](CCCCN)C(=O)N[C@@H](CCCNC(=N)N)C(=O)N[C@@H](CO)C(=O)N[C@@H](CC(C)C)C(=O)N[C@@H](C)C(=O)N[C@@H](CCCNC(=N)N)C(=O)N[C@@H](Cc2ccccc2)C(=O)N[C@H](C(=O)O)CSSC[C@@H](C(=O)NCC(=O)N[C@@H](CCSC)C(=O)N[C@@H](CO)C(=O)N[C@H](C(=O)N[C@@H](Cc2c[nH]c3ccccc23)C(=O)N[C@@H](CO)C(=O)O)[C@@H](C)O)NC1=O [AQ1-dKdKdKdKdKdK-Glu^γ-C13-COOH] | – | – | – | 0.0312 µM·h | 0.06 nM | 0.1 nM
